Laboratory results taken from patent US20220257516A1, “THERAPEUTIC CONSTRUCTS FOR CO-DELIVERY OF MITOTIC KINASE INHIBITOR AND IMMUNE CHECKPOINT INHIBITOR” (Oregon Health & Science University, priority 2019, published 2022).

Experiments:
LLC-JSP cells = assay: Cell viability after treatments (Cell Titer Glo), LLC-JSP; format: cell-based, mouse; conditions: for 3-day viability of LLC-JSP cells: free mitotic kinase inhibitors
Procedure: (C) Cell viability of murine cancer cells (LLC-JSP, 4T1, B16-F10) and murine bone marrow-derived dendritic cells (BMDC) treated with p-iPLK1-NP.
(B) Treatment effect of ADC versus free alisertib of equivalent dose on viability of LLC-JSP cells (2-days). Free alisertib was dissolved in DMSO before use.
Cell viability after treatments: Cells (1500/well) were plated in white flat bottom 96 well plate overnight. The following day, cells were treated with indicated treatments and media was changed 24 hr post treatment. 3-5 day post treatment, cell viability was assessed using Cell Titer Glo assay (Promega) following manufacturer's instructions. Luminescence was read with Tecan plate reader.

[1] = tested on: PD-L1 surface expression of LLC-JSP cells; assay: PD-L1 surface expression by flow cytometry, LLC-JSP; format: cell-based, mouse; conditions: for surface PD-L1 level of surviving cells: 500 ng/ml
Procedure: FIGS. 4A-4C Treatment effects of mitotic kinase inhibitors on (A) 3-day viability of LLC-JSP cells, (B) PD-L1 expression levels of surviving cells post treatment with 500 ng/ml of volasertib, alisertib, or AZD7762 as determined by flow cytometry and (C) their quantification.
FIGS. 6A-6D Nanoparticle delivery of PLK1 inhibitor volasertib (iPLK1-NP) to mouse NSCLC cells. (FIG. 6A) Schematic of synthesis of iPLK1-NP. (FIG. 6B) Hydrodynamic size of NP (with no inhibitor) and iPLK1-NP measured with Zetasizer. (FIG. 6C) Viability of LLC-JSP cells treated with volasertib (in 1% DMSO/PBS), iPLK1-NP (in PBS), or 1% DMSO/PBS for 4 days. Data presented as mean±SD from 4 independent samples; ****P<0.0001. (FIG. 6D) PD-L1 surface expression of LLC-JSP cells treated with PBS or iPLK1-NP (42 μg/ml NP, 210 ng/ml volasertib) for 3 days.
FIGS. 7A-7E. Nanoparticle for co-delivery of PLK1 inhibitor (iPLK1) and PD-L1 antibody (p-iPLK1-NP). (FIG. 7A) Schematic and (FIG. 7B) hydrodynamic size of p-iPLK1-NP containing 4 wt. % of PD-L1 antibody and 0.5 wt. % of PLK1 inhibitor. (FIG. 7C) 5-day cell viability of LLC-JSP cells treated with iPLK1-NP or p-iPLK1-NP. Data presented as mean±SD from 4 independent samples; ns—not significant. PD-L1 surface expression assessed by flow cytometry after LLC-JSP cells were incubated with various treatments as specified for (FIG. 7D) 2 hrs and (FIG. 7E) 2 days. Doses: free PD-L1 antibody (50 μg/ml), iPLK1-NP (NP containing 50 μg/ml volasertib), and p-iPLK1-NP (NP containing 50 μg/ml volasertib and 2 μg/ml PD-L1 antibody). Left of FIGS. 7D and 7E: representative histograms, right: median intensity (RFU). Data presented as mean±SD from independent duplicates (10,000 events per sample); *P<0.05, **P<0.01, ***P<0.001, ****P<0.0001. Unless specified otherwise, the percent loading is by weight of nanoparticle throughout the application.
(§1) FIGS. 12A and 12B. Inhibition of PLK1 reduces phosphorylation of STAT3. Western blot showing protein expression of PLK1, Pl3Ka, phosphorylated STAT3 (Tyr705), phosphorylated AKT (Ser473), and p-Actin 3 days post treatment (50 nM siRNA) in A549 and H460 NSCLC cell lines. […] The cells were treated with NP containing 30 nM siRNA against PD-L1 (siPDL1) or 30 nM scrambled siRNA (siSCR) at 2 wt. % siRNA. At 72 hr post treatment, cells were harvested and assessed for PD-L1 protein expression by flow cytometry. RFU=Relative fluorescence units.
Flow cytometry: Cells (100K cells/well) were plated in 6 well plates overnight and treated with indicated treatments the next day. Following treatments, cells were collected and aliquoted to […] per sample before washing in FACs buffer and staining. […] Cells were then washed with FACs buffer and analyzed with Guava (50,000 events per sample).

A549 = assay: Cell cycle arrest in G2/M phase; format: cell-based, human; conditions: 72 hr post treatment, 50 nM siRNA, BI 2536 at 10 nM
Procedure: (§2) FIGS. 2A-2D. Effects of siRNA against mitotic regulator PLK1 (siPLK1) on non-small-cell lung carcinoma (NSCLC) cell lines (A549 and H460). (FIG. 2A) 48-hr PLK1 mRNA knockdown (HPRT used as house-keeping gene) and (FIG. 2B) 72-hr PLK1 protein reduction at 50 nM siRNA dose. (FIG. 2C) 4-day cell viability at 30 nM siRNA dose. (FIG. 2D) Cell cycle arrest increase in G2/M phase in A549 72 hr post treatment. Antibody (cetuximab) conjugated NP was used to deliver the siPLK1 (C-siPLK1-NP) or scrambled siRNA control (C-siSCR-NP) at 50 nM siRNA BI 2536 (a PLK1 inhibitor) was used as a drug benchmark at 10 nM. Data presented as mean±SD from independent duplicates (10,000 events per sample); ****P<0.0001 vs. untreat control. Unless specified otherwise, “NP” denotes mesoporous silica nanoparticles coated with cross-linked PEI and PEG, as described in Ngamcherdtrakul et al., Advanced Functional Materials, 25(18):2646-2659, 2015 and U.S. Patent Application Publication No. 2017/0173169.

[2] = tested on: PD-L1 mRNA expression in A549; assay: PD-L1 mRNA expression after PLK1 knock-down (RT-qPCR); format: cell-based, human; conditions: 48 hr, compared with control treated cells
Description: (§3) FIGS. 3A-3C. […] (FIG. 3A) PLK1 and PD-L1 mRNA expression in A549 (human NSCLC) at 48 hr post treatment with PLK1 siRNA (siPLK1) or scrambled siRNA (siSCR) normalized to HPRT housekeeping gene. Data presented as mean±SD from triplicates; ****P<0.0001. (FIG. 3B) PD-L1 surface expression of A549 ([…]) and LLC-JSP (a mouse NSCLC, FIG. 3C) at 72 hr post treatments assessed by flow cytometry (10,000 events per sample). Mouse siPLK1 seq. […] (SEQ ID NO: 1); Human siPLK1 seq. […] (SEQ ID NO: 2).
RT-qPCR to assess PLK1 gene knock down: RNA was isolated with GeneJet RNA purification kit (Thermo Fisher Scientific) following manufacturer's instructions. One-Step qRT-PCR was performed using EXPRESS One-Step Superscript™ qRT-PCR Kit (Invitrogen). Cycling conditions: 50° C. for 2 min, 95° C. for 10 min, 40 cycles of 95° C. for 15 s, and 60° C. for 1 min. TAQMAN gene expression primers Human HPRT mRNA (Hs99999909_m1), Human PLK1 mRNA (Hs00983225_g1), and Human PD-L1 (Hs00204257_ml) were used. Data was analyzed using 2^−ΔΔC(t) method.

PLK1 mRNA = assay: PLK1 knock down by siRNA (RT-qPCR / protein); format: cell-based, human; conditions: A549; 48 hr post treatment; normalized to HPRT
Procedure: as §2
FIGS. 3A-3C. […] (FIG. 3B) PD-L1 surface expression of A549 (FIG. 2B) and LLC-JSP (a mouse NSCLC, FIG. 3C) at 72 hr post treatments assessed by flow cytometry (10,000 events per sample). […]
RT-qPCR to assess PLK1 gene knock down: RNA was isolated with GeneJet RNA purification kit (Thermo Fisher Scientific) following manufacturer's instructions. […] Data was analyzed using 2^−ΔΔC(t) method.

[3] = tested on: phosphorylated STAT3 (Tyr705); assay: Western blot of phosphorylated STAT3 after PLK1 inhibition; format: cell-based, human; conditions: A549 and H460; 3 days post treatment; 50 nM siRNA
Procedure: as §1
Western Blot. Cells were seeded in 6 well plates overnight and treated with indicated treatments. Cell culture medium was changed one day aftertreatment. Three days post treatment, cells were lysed in RIPA buffer (50-100 μl per well). Lysate was sonicated and centrifuged (15,000 RPM for 15 minutes) and supernatant was collected. Amount of total protein was quantified using BCA. 30 μg of proteins (per sample) were mixed with 4× Novex NuPAGE LDS sample buffer and beta-mercaptoethanol (10% final concentration). Samples were denatured for 5 min at 95° C. and loaded onto gel (NuPAGE) for electrophoresis. Proteins were then transferred onto PVDF-FL membrane and blocked with LICOR blocking buffer. Membranes were incubated with primary antibodies overnight (PLK1, phospho-STAT3 (Tyr705), β-ACTIN) at 4° C. […]

[4] = tested on: PD-L1 surface expression of A549; assay: PD-L1 surface expression by flow cytometry, A549; format: cell-based, human; conditions: 3 days (72 hr) post siRNA treatment
Description: as §3
Flow cytometry: Cells (100K cells/well) were plated in 6 well plates overnight and treated with indicated treatments the next day. Following treatments, cells were collected and aliquoted to […] per sample before washing in FACs buffer and staining. Primary and secondary antibodies were stained for 30 mins and 1 hour, respectively, under rocking on ice. After staining, cells were washed in FACs buffer before flow analysis with Guava easyCyte (Millipore Sigma) flow cytometer (10,000 events per sample). For tumors, tumors were harvested, minced, and incubated with 1 mg/ml DNAse for 30 minutes before smashing through 70 μm filter to obtain single cell suspension. RBC lysis buffer was incubated with cells for 5 minutes, and washed with PBS. […] Cells were then washed with FACs buffer and analyzed with Guava (50,000 events per sample).

NC(=O)Nc1cc(-c2cccc(F)c2)sc1C(=O)N[C@H]1CCCNC1 [AZD7762]
3-day viability of LLC-JSP cells (LLC-JSP cells): significant cell death
surface PD-L1 level of surviving cells [1]: upregulated surface PD-L1 level

CC[C@@H]1C(=O)N(C)c2cnc(Nc3ccc(C(=O)NC4CCN(C)CC4)cc3OC)nc2N1C1CCCC1 [BI2536]
cell cycle arrest in G2/M phase (A549): G2/M growth arrest

COc1cc(Nc2ncc3c(n2)-c2ccc(Cl)cc2C(c2c(F)cccc2OC)=NC3)ccc1C(=O)O [alisertib]
3-day viability of LLC-JSP cells (LLC-JSP cells): significant cell death
surface PD-L1 level of surviving cells [1]: upregulated surface PD-L1 level

CC[C@@H]1C(=O)N(C)c2cnc(Nc3ccc(C(=O)N[C@H]4CC[C@H](N5CCN(CC6CC6)CC5)CC4)cc3OC)nc2N1C(C)C [volasertib]
cell viability compared with vehicle treated cells (LLC-JSP cells; LLC-JSP, 4 days, dose-dependent): significantly reduced cell viability
3-day viability of LLC-JSP cells (LLC-JSP cells): significant cell death
surface PD-L1 level of surviving cells [1]: upregulated surface PD-L1 level

Mouse siPLK1: Mouse siPLK1 seq. GUGGGCGUGGUACCAUCUGUU (SEQ ID NO: 1) (listed as RNA, chemistry not given here)
PD-L1 surface expression ([1]; 72 hr post siRNA treatment): induces PD-L1 expression

siPLK1: siRNA against PLK1, antisense 5′-UAUUCAUUCUUCUUGAUCCGG-3′; SEQ ID NO: 2 (sense strand lacks entry, further chemistry not given here)
increase in PD-L1 mRNA expression [2]: 2.5 fold
knockdown of PLK1 mRNA (PLK1 mRNA): 85%
phosphorylation of STAT3 [3]: reduced phosphorylation of STAT3
PD-L1 surface expression [4]: increase in PD-L1 surface expression
